Results from patent publication US5973229A, “Gene encoding herbicide safener binding protein” (Board of Trustees Operating Michigan State University, priority 1997, dated 1999).

Columns and labels:
[1] = tested on: safener binding activity (SafBA) / SafBP; settings: cited from earlier work; for IC50: maize SafBA, from Walton and Casida 1995, read-out: IC50 (inhibitor concentration that reduces specific [3H]Saf binding by 50%)
[2] = molecular target: T1, SafBP (SBP1 expressed in E. coli) (Zea mays, UniProt O49010); assay: [3H]Saf binding in extracts of E. coli expressing SBP1; parameters: species or system maize (Zea mays L.); settings: for Total [3H]Saf binding: E. coli/SBP1 2-hr extract, 20.9 μg protein, [3H]R-29148 alone 67.3, average of duplicates
T1 construct: possible vector-derived N-terminal residues
T1 sequence (O49010 1-363): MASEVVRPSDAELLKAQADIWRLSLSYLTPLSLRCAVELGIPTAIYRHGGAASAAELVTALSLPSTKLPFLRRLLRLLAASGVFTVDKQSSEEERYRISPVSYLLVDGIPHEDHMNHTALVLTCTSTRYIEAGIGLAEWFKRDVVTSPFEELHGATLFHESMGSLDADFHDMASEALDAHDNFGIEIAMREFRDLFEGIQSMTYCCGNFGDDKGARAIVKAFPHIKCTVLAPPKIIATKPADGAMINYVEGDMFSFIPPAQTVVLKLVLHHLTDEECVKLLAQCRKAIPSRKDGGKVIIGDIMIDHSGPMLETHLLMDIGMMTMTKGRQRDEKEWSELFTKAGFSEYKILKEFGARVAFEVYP
Experimental: Binding Assay. Racemic R-29148 (Saf) and [^3 H]Saf (specific activity 15 Ci/mmol) were prepared according to Latli, B. et al., J. Labelled Cmpd Radiopharmn. 36:147-155 (1995). The sources of other chemicals are given in Walton, J. D. and Casida, J. E., Plant Physiol. 109:213-219 (1995). [^3 H]Saf binding was measured by incubating extracts with ca. 400,000 cpm of [^3 H]Saf in 50 mM Tris-HCl, pH 8, in a total volume of 1 mL for 60 min at 22° C. The extracts were then filtered through GF/A (Whatman) glass fiber filters that had been soaked in 0.3% polyethylenimine, the filters rinsed with water, and radioactivity retained on the filters measured by scintillation counting. Walton, J. D. and Casida, J. E., Plant Physiol. 109:213-219 (1995).
Expression of SafBP in E. coli. Vector pZL1 (Gibco-BRL) containing the SafBP cDNA clone was digested with EcoRI and NotI, the 1.5-kb insert cloned into the corresponding sites in the E. coli expression vector pET21c (Novagen, Madison, Wis.), and the resulting construct transformed into E. coli strain BL21(DE3) (Novagen). A 50-mL culture of this strain was grown at 37° C. to an OD600 of 0.5 at which point expression of the cDNA was induced with 1 mM isopropylthiogalactoside (IPTG). As a control, E. coli BL21(DE3) transformed with pET21c with no insert was grown in parallel. Samples (each 12.5 mL) were removed at 0, 1, 2, and 3 hr after induction, centrifuged, and extracted by the freeze-thaw method according to Novagen, and centrifuged again to remove cell debris. Each sample was in a final volume of 5 mL of 50 mM Tris-HCl, pH 8; 50 μL of this was used in the [^3 H]Saf binding assay according to Walton and Casida. Walton, J. D. and Casida, J. E., Plant Physiol. 109:213-219 (1995).
SBP1 was expressed in E. coil behind an IPTG-inducible promoter. Extracts of E. coil expressing SBP1 have strong SafBA whereas cells transformed with the empty expression vector have no binding (Table II). […] After growing to an OD600 of 0.5, cells were induced with IPTG and aliquots harvested at the indicated times after induction, lysed, and centrifuged to remove cell debris. Final volume of each extract was 5 mL. Control cells were transformed with the vector without insert. Values are the average of duplicates. Like [^3 H]Saf binding to the native maize protein, [^3 H]Saf binding in E. coli extracts is inhibited by dichlormid, EPTC, metolachlor, acetochlor, and alachlor (Table III). Table III provides inhibition of [^3 H]Saf binding by safeners and herbicides in extracts of E. coli expressing SBP1. The E.coli/SBP1 2-hr time point from […] was used; protein content per sample was 20.9 μg. Values are the average of duplicates.

[3] = competitor Concentration 1.1 (unit not given)

Compound: CC(C)N(C(=O)CCl)c1ccccc1 [propachlor]
- SafBP binds herbicide [1]: binds

Compound: CC1CN(C(=O)C(Cl)Cl)C(C)(C)O1 (racemic) [R-29148, (R,S)-3-dichloroacetyl-2,2,5-trimethyloxazolidine]
- IC50 [1]: 120 nM
- Kd ([1]; soluble, high affinity binding activity in extracts of etiolated maize seedlings, read-out: Kd of safener binding activity (SafBA) for [3H]Saf): 120 nM
- Total [3H]Saf binding ([2]; competitor Concentration 2.5 (unit not given)): 3.0

Compound: CCc1cccc(C)c1N(C(=O)CCl)C(C)COC (centres unmarked) [metolachlor]
- SafBP binds herbicide [1]: binds
- IC50 [1]: 40 nM
- Inhibition of R-29148 binding in extracts of E. coli cells expressing SBP1 [2]: competitively inhibited
- Total [3H]Saf binding [2, 3]: 3.3

Compound: CCSC(=O)N(CC(C)C)CC(C)C [butylate]
- SafBP binds herbicide [1]: binds

Compound: CCSC(=O)N(CC)C1CCCCC1 [cycloate]
- SafBP binds herbicide [1]: binds

Compound: CC(C)N(C(=O)SCC(Cl)=C(Cl)Cl)C(C)C [triallate]
- SafBP binds herbicide [1]: binds

Compound: CCCN(CCC)C(=O)SCC [EPTC, S-ethyl dipropylthiocarbamate]
- SafBP binds herbicide [1]: binds
- IC50 [1]: 110 nM
- Inhibition of R-29148 binding in extracts of E. coli cells expressing SBP1 [2]: competitively inhibited
- Total [3H]Saf binding ([2]; competitor Concentration 1.6 (unit not given)): 1.7

Compound: CCc1cccc(CC)c1N(COC)C(=O)CCl [alachlor]
- SafBP binds herbicide [1]: binds
- IC50 [1]: 70 nM
- Inhibition of R-29148 binding in extracts of E. coli cells expressing SBP1 [2]: competitively inhibited
- Total [3H]Saf binding [2, 3]: 1.7

Compound: C=CCN(CC=C)C(=O)C(Cl)Cl [dichlormid]
- IC50 [1]: 10 nM
- Inhibition of R-29148 binding in extracts of E. coli cells expressing SBP1 [2]: competitively inhibited
- Total [3H]Saf binding ([2]; competitor Concentration 1.4 (unit not given)): 0.7

Compound: CCOCN(C(=O)CCl)c1c(C)cccc1CC [acetochlor]
- SafBP binds herbicide [1]: binds
- IC50 [1]: 180 nM
- Inhibition of R-29148 binding in extracts of E. coli cells expressing SBP1 [2]: inhibited
- Total [3H]Saf binding [2, 3]: 21.6
